{
  "source": "paper PMC10313921",
  "about": "“A living ex vivo platform for functional, personalized brain cancer diagnosis” (Cell Reports Medicine, 2023)",
  "format_in_all_cases": "cell-based, human",
  "key": {"[1]": {"system": "U373WT (wild-type established GBM line)", "assay": "Drug screening of U373WT tumor foci on OBSCs", "settings": "U373 WT on OBSCs", "protocol": "(§1) Tumor cells (0.17 μL, 25,000 cells) were seeded onto OBSCs 2h after slicing, with one tumor seeded in the center of each hemisphere for a total of two tumor foci per OBSC. BSM was changed 24h after slicing. Fluorescence images were taken 0 h, 24 h, and 96 h post-seeding for normalization of tumor size. Bioluminescence readouts were also taken at 0 h, 24 h, and 96 h post seeding for assessment of cell viability. Luciferin was added underneath the culture insert and allowed to incubate for 10 min before bioluminescence measurement on an AMI optical imaging system.\n(§2) Tumor cells were seeded onto OBSCs 2h after slicing as described above. One day after tumor seeding, six concentrations of each drug were diluted in the media underneath each culture insert, or XRad was applied using an X-Rad 320 Precision X-ray machine (n = 4 tumor foci per concentration; n ≥ 24 tumor foci per drug per cell line). Three days after treatment, the bioluminescence of live tumor cells was measured using an AMI optical imager (Spectral Instruments) and dose-response curves were generated. Tumor survival was normalized to day one tumor fluorescence and compared to an untreated control group.\n(§3) Several weighted parameters were factored into an overall drug sensitivity score.\n(§4) For DSS parameters 1–6, therapeutic windows were calculated by comparing OBSC toxicity and tumor response at the doses where tumor kill passed through the DSS parameter (Table S1 and S3). For DSS parameter 7, the therapeutic window was calculated by comparing the slopes through the tumor EC50 and the OBSC tox EC50. For DSS parameter 8, the therapeutic window was calculated by comparing the areas under tumor kill and OBSC tox curves. Normalized therapeutic window ratios for DSS parameters 1–8 within each drug-tumor-OBSC interaction were calculated in the following manner: within each window, values ranged from +1 to −1, where values approaching +1 signify increasing tumor kill relative to normal tissue toxicity, and values approaching −1 indicate agents where tumors remained highly viable while toxicity to the normal OBSC tissue was elevated. DSS parameters 9–11 were determined based on the behavior of the tumor in response to the drug, as defined above.\n(§5) All individually weighed parameters were added together to generate the DSS. Overall DSS from 0 to 100 signify increasing efficacy in tumor kill relative to OBSC toxicity, while scores from 0 to −100 describe scenarios in which tumors thrive more effectively than OBSCs for a given treatment. Dose-response values were calculated via linear interpolation of raw data, not from best-fit curve equations."}, "[2]": {"system": "U373KO (RAD18 knockout of U373WT via CRISPR)", "assay": "Drug screening of U373KO tumor foci on OBSCs", "settings": "U373 KO on OBSCs", "protocol": "as §1, §2, §3, §4, §5"}, "[3]": {"system": "MB231Br (breast cancer metastasis to brain)", "assay": "Drug screening of MB231Br tumor foci on OBSCs", "settings": "MB231BR on OBSCs"}, "[4]": {"system": "PDIPG (low-passage pediatric patient-derived line)", "assay": "Drug screening of PDIPG tumor foci on OBSCs", "settings": "PDIPG on OBSCs", "protocol": "as §1, §2, §3, §4, §5"}, "[5]": {"system": "LN229 (established GBM line)", "assay": "Drug screening of LN229 tumor foci on OBSCs", "protocol": "as §1, §2, §3, §4, §5"}, "[6]": {"system": "GBM8 (high-passage patient-derived GBM line)", "assay": "Drug screening of GBM8 tumor foci on OBSCs", "settings": "GBM8 on OBSCs", "protocol": "as §1, §2, §3, §4, §5"}, "[7]": {"system": "MS21 (low-passage patient-derived GBM line)", "assay": "Drug screening of MS21 tumor foci on OBSCs", "settings": "MS21 on OBSCs", "protocol": "as §1, §2, §3, §4, §5"}, "[8]": {"system": "PIS patient tumor tissue (intracranial sarcoma)", "assay": "Drug screening of uncultured patient tumor tissue PIS on OBSCs", "settings": "PIS patient tissue; scale -100 to +100", "protocol": "as §2\nTo engraft onto OBSCs, the cryopreserved/thawed or fresh brain tumor tissue was filtered through a 100 μm cell strainer. Each 50 mg of tissue was transfected with 1mL mcherry-FLuc Lentivirus at 1.5e7 vg/ml with 1μL polybrene for 4h at 37°C. After incubation, the brain tumor tissue was washed with PBS three times to remove the residual virus and reconstituted in PBS with a final volume of 150 μL. Then the tissue solution was engrafted atop OBSCs at ∼0.5 mg tissue in 3 μL of PBS on each hemisphere of the slice. The OBSC engrafted with patient tumor tissue was incubated at 37°C with 5% CO2 and 95% humidity. The BSM was changed after 24h and subsequently every 3 days. Tumor treatment studies were executed as described above for tumor lines. The viability of the patient tissue was measured by an AMI optical imaging system with the addition of 1.5 mg/mL luciferin underneath the culture insert.\nas §3, §4, §5"}, "[9]": {"settings": "area under the dose-response curve, trapezoidal rule"}, "[10]": {"settings": "dose required to kill 10% of the tumor"}, "[11]": {"settings": "dose required to kill 25% of the tumor"}, "[12]": {"settings": "dose required to kill 50% of the tumor"}, "[13]": {"settings": "dose required to kill 75% of the tumor"}, "[14]": {"settings": "dose required to kill 90% of the tumor"}, "[15]": {"settings": "dose required to kill 50% of the tumor, read-out: EC50"}, "[16]": {"settings": "dose required to kill 90% of the tumor, read-out: EC90"}},
  "data": [
    {"smiles": "N.N.O=C([O-])C1(C(=O)[O-])CCC1.[Pt+2]", "note": "[Carboplatin]", "values": [
      {"measurement": "Killing at highest dose", "setting": "[1]", "result": "1.00E+00 fraction of tumor population killed"},
      {"measurement": "AUC", "setting": "[1]; [9]", "result": "3.11E+02"},
      {"measurement": "EC10", "setting": "[1]; [10]", "result": 93.2, "unit": "µM"},
      {"measurement": "EC25", "setting": "[1]; [11]", "result": 103, "unit": "µM"},
      {"measurement": "EC50", "setting": "[1]; [12]", "result": 176, "unit": "µM"},
      {"measurement": "EC75", "setting": "[1]; [13]", "result": 250, "unit": "µM"},
      {"measurement": "EC90", "setting": "[1]; [14]", "result": 700, "unit": "µM"},
      {"measurement": "Slope", "setting": "[1]; slope through the EC50", "result": "-3.40E-03"},
      {"measurement": "Killing at highest dose", "setting": "[2]", "result": "9.99E-01 fraction of tumor population killed"},
      {"measurement": "AUC", "setting": "[2]; [9]", "result": "1.92E+02"},
      {"measurement": "EC10", "setting": "[2]; [10]", "result": 9.09, "unit": "µM"},
      {"measurement": "EC25", "setting": "[2]; [11]", "result": 125, "unit": "µM"},
      {"measurement": "EC50", "setting": "[2]; [12]", "result": 172, "unit": "µM"},
      {"measurement": "EC75", "setting": "[2]; [13]", "result": 219, "unit": "µM"},
      {"measurement": "EC90", "setting": "[2]; [14]", "result": 248, "unit": "µM"},
      {"measurement": "Slope", "setting": "[2]; slope through the EC50", "result": "-5.29E-03"},
      {"measurement": "Killing at highest dose", "setting": "[3]", "result": "1.00E+00 fraction of tumor population killed"},
      {"measurement": "AUC", "setting": "[3]; [9]", "result": "1.89E+02"},
      {"measurement": "EC10", "setting": "[3]; [10]", "result": 117, "unit": "µM"},
      {"measurement": "EC25", "setting": "[3]; [11]", "result": 119, "unit": "µM"},
      {"measurement": "EC50", "setting": "[3]; [12]", "result": 122, "unit": "µM"},
      {"measurement": "EC75", "setting": "[3]; [13]", "result": 125, "unit": "µM"},
      {"measurement": "EC90", "setting": "[3]; [14]", "result": 213, "unit": "µM"},
      {"measurement": "Slope", "setting": "[3]; slope through the EC50", "result": "-8.00E-02"},
      {"measurement": "Killing at highest dose", "setting": "[4]", "result": "1.00E+00 fraction of tumor population killed"},
      {"measurement": "AUC", "setting": "[4]; [9]", "result": "1.79E+02"},
      {"measurement": "EC10", "setting": "[4]; [10]", "result": 4.76, "unit": "µM"},
      {"measurement": "EC25", "setting": "[4]; [11]", "result": 20, "unit": "µM"},
      {"measurement": "EC50", "setting": "[4]; [15]", "result": 86.1, "unit": "µM"},
      {"measurement": "EC75", "setting": "[4]; [13]", "result": 211, "unit": "µM"},
      {"measurement": "EC90", "setting": "[4]; [16]", "result": 583, "unit": "µM"},
      {"measurement": "Slope", "setting": "[4]; slope through the EC50", "result": "-3.59E-03"},
      {"measurement": "Killing at highest dose", "setting": "[5]", "result": "1.00E+00 fraction of tumor population killed"},
      {"measurement": "AUC", "setting": "[5]; [9]", "result": "1.22E+02"},
      {"measurement": "EC10", "setting": "[5]; [10]", "result": 4.17, "unit": "µM"},
      {"measurement": "EC25", "setting": "[5]; [11]", "result": 14, "unit": "µM"},
      {"measurement": "EC50", "setting": "[5]; [12]", "result": 133, "unit": "µM"},
      {"measurement": "EC75", "setting": "[5]; [13]", "result": 193, "unit": "µM"},
      {"measurement": "EC90", "setting": "[5]; [14]", "result": 229, "unit": "µM"},
      {"measurement": "Slope", "setting": "[5]; slope through the EC50", "result": "-4.20E-03"},
      {"measurement": "Killing at highest dose", "setting": "[6]", "result": "1.00E+00 fraction of tumor population killed"},
      {"measurement": "AUC", "setting": "[6]; [9]", "result": "1.03E+01"},
      {"measurement": "EC10", "setting": "[6]; [10]", "result": 1.16, "unit": "µM"},
      {"measurement": "EC25", "setting": "[6]; [11]", "result": 2.91, "unit": "µM"},
      {"measurement": "EC50", "setting": "[6]; [15]", "result": 5.81, "unit": "µM"},
      {"measurement": "EC75", "setting": "[6]; [13]", "result": 8.72, "unit": "µM"},
      {"measurement": "EC90", "setting": "[6]; [16]", "result": 26, "unit": "µM"},
      {"measurement": "Slope", "setting": "[6]; slope through the EC50", "result": "-8.60E-02"},
      {"measurement": "Killing at highest dose", "setting": "[7]", "result": "1.00E+00 fraction of tumor population killed"},
      {"measurement": "AUC", "setting": "[7]; [9]", "result": "1.47E+02"},
      {"measurement": "EC10", "setting": "[7]; [10]", "result": 59.7, "unit": "µM"},
      {"measurement": "EC25", "setting": "[7]; [11]", "result": 71.8, "unit": "µM"},
      {"measurement": "EC50", "setting": "[7]; [15]", "result": 91.9, "unit": "µM"},
      {"measurement": "EC75", "setting": "[7]; [13]", "result": 157, "unit": "µM"},
      {"measurement": "EC90", "setting": "[7]; [16]", "result": 215, "unit": "µM"},
      {"measurement": "Slope", "setting": "[7]; slope through the EC50", "result": "-1.24E-02"},
      {"measurement": "DSS (drug sensitivity score)", "setting": "[8]", "result": 88}
    ]}
  ]
}
